This note sets out measurements from patent US10336697B2, “Spiro[cyclobutane-1,3′-indolin]-2′-one derivatives as bromodomain inhibitors” (Orion Corporation, priority 2015, dated 2019).

Where two headings read alike, the source gives them in different places.

The target of the experiment is Bet BRD4 full length bromo-domain protein (Homo sapiens, UniProt O60885). Kind of experiment: Bet bromodomain TR-FRET assay (displacement of acetyl histone peptide). The class given is binding. The following applies: 300 nM acetyl histone peptide substrate.
The mark [1] stands for this setting: Bet BRD4 full length bromodomain protein, read-out: IC50.

What is called IC50 is the point on the concentration scale where inhibition reaches its midpoint. Consider `COc1cc(F)ccc1S(=O)(=O)Nc1cc(Cc2cccc(F)c2)c2c(c1)C1(CCC1)C(=O)N2` [Compound 96, 4-Fluoro-N-(7′-(3-fluorobenzyl)-2′-oxospiro[cyclobutane-1,3′-indolin]-5′-yl)-2-methoxybenzenesulfonamide], for which the IC50 under setting [1] is under 600 nM.
On the same count and under the same terms, the same measure for `O=C1Nc2c(Nc3ccncc3)cc(NS(=O)(=O)c3ccc(F)cc3F)cc2C12CCC2` [Compound 62, 2,4-Difluoro-N-(2′-oxo-7′-(pyridin-4-ylamino)spiro[cyclobutane-1,3′-indolin]-5′-yl)benzenesulfonamide]: over 1000 nM.
On the same count and under the same terms, the same measure for `O=C(Nc1cc(NS(=O)(=O)c2ccc(F)cc2F)cc2c1NC(=O)C21CCC1)c1ccncc1` [Compound 45, N-(5′-(2,4-Difluorophenylsulfonamido)-2′-oxospiro[cyclobutane-1,3′-indolin]-7′-yl)isonicotinamide]: over 1000 nM.
The same measure, in the same setting: the same measure for `COc1ccc(S(=O)(=O)Nc2cc(Cc3cccc(F)c3)c3c(c2)C2(CCC2)C(=O)N3)c(F)c1` [Compound 95, 2-Fluoro-N-(7′-(3-fluorobenzyl)-2′-oxospiro[cyclobutane-1,3′-indolin]-5′-yl)-4-methoxybenzenesulfonamide]: under 600 nM.
As to `CN1CCC(Oc2cc(NS(=O)(=O)c3ccccc3F)cc3c2NC(=O)C32CCC2)CC1` [compound 128], the IC50 under setting [1] was under 600 nM.
The same measure, in the same setting: for `COc1ccccc1S(=O)(=O)Nc1cc(NC2=CC(=O)NCC2)c2c(c1)C1(CCC1)C(=O)N2` [Compound 77, 2-Methoxy-N-(2′-oxo-7′-((6-oxo-1,2,3,6-tetrahydropyridin-4-yl)amino)spiro[cyclobutane-1,3′-indolin]-5′-yl)benzenesulfonamide] the value was under 600 nM.
Consider `COc1ccccc1S(=O)(=O)Nc1cc(OC2CCN(C)CC2F)c2c(c1)C1(CCC1)C(=O)N2` (single isomer, unassigned) [compound 191, N-(7′-((3-fluoro-1-methylpiperidin-4-yl)oxy)-2′-oxospiro[cyclobutane-1,3′-indolin]-5′-yl)-2-methoxybenzenesulfonamide], for which, under setting [1], the IC50 is under 600 nM.
As for `COc1ccccc1S(=O)(=O)Nc1cc(Cc2ccccc2F)c2c(c1)C1(CCC1)C(=O)N2` [Compound 9, N-(7′-(2-fluorobenzyl)-2′-oxospiro[cyclobutane-1,3′-indolin]-5′-yl)-2-methoxybenzenesulfonamide], under setting [1], the IC50 is under 600 nM.
On to `CN1CCC(NC(=O)c2cc(NS(=O)(=O)c3ccc(C#N)cc3F)cc3c2NC(=O)C32CCC2)CC1` [Compound 81, 5′-((4—Cyano-2-fluorophenyl)sulfonamido)-N-(1-methylpiperidin-4-yl)-2′-oxospiro[cyclobutane-1,3′-indoline]-7′-carboxamide], for which the IC50 under setting [1] was over 1000 nM.
Same read-out and setting: for `CN1CCC(NC(=O)c2cc(NS(=O)(=O)c3ccc(F)cc3F)cc3c2NC(=O)C32CCC2)CC1` [Compound 56, 5′-(2,4-Difluorophenylsulfonamido)-N-(1-methylpiperidin-4-yl)-2′-oxospiro[cyclobutane-1,3′-indoline]-7′-carboxamide] the value was under 600 nM; for `O=C(Nc1cccnc1)c1cc(NS(=O)(=O)c2ccc(F)cc2F)cc2c1NC(=O)C21CCC1` [Compound 51, 5′-(2,4-Difluorophenylsulfonamido)-2′-oxo-N-(pyridin-3-yl)spiro[cyclobutane-1,3′-indoline]-7′-carboxamide], 600 to 1000 nM; for `Cn1cnc2ccc(-c3cc(NS(=O)(=O)c4ccc(F)cc4F)cc4c3NC(=O)C43CCC3)cc21` [Compound 5, 2,4-Difluoro-N-(7′-(1-methyl-1H-benzo[d]imidazol-6-yl)-2′-oxospiro[cyclobutane-1,3′-indolin]-5′-yl)benzene sulphonamide], under 600 nM.
The same measure, in the same setting: for `Nc1cc(NS(=O)(=O)c2ccc(F)cc2F)cc2c1NC(=O)C21CCC1` [Compound 15, N-(7′-amino-2′-oxospiro[cyclobutane-1,3′-indolin]-5′-yl)-2,4-difluoro-benzenesulfonamide] the value was under 600 nM.
Regarding `COc1ccccc1S(=O)(=O)Nc1cc(OC(=O)N2CCN(C)CC2)c2c(c1)C1(CCC1)C(=O)N2` [Compound 169, 5′-((2-Methoxyphenyl)sulfonamido)-2′-oxospiro[cyclobutane-1,3′-indolin]-7′-yl 4-methylpiperazine-1-carboxylate], the IC50 (IC50, Bet BRD4 full length bromodomain protein) was under 600 nM.
In the case of `CC1CC(Oc2cc(NS(=O)(=O)c3ccc(Cl)cc3F)cc3c2NC(=O)C32CCC2)CC(C)N1C` (centres unmarked) [compound 195, 4-Chloro-2-fluoro-N-(2′-oxo-7′-((1,2,6-trimethylpiperidin-4-yl)oxy)spiro[cyclobutane-1,3′-indolin]-5′-yl)benzenesulfonamide], under setting [1], the IC50 was under 600 nM.
Same read-out and setting: the same measure for `O=C1CCC(c2cc(NS(=O)(=O)c3ccc(F)cc3F)cc3c2NC(=O)C32CCC2)CN1` (centres unmarked) [Compound 105, 2,4-Difluoro-N-(2′-oxo-7′-(6-oxopiperidin-3-yl)spiro [cyclobutane-1,3′-indolin]-5′-yl)benzenesulfonamide]: under 600 nM; for `CN1CCCC(Nc2cc(NS(=O)(=O)c3ccc(F)cc3F)cc3c2NC(=O)C32CCC2)C1` (single isomer, unassigned) [Compound 34, 2,4-Difluoro-N-(7′-((1-methylpiperidin-3-yl)amino)-2′-oxospiro[cyclobutane-1,3′-indolin]-5′-yl)benzenesulfonamide]: under 600 nM; for `COc1ccccc1S(=O)(=O)Nc1cc(OCc2ccccn2)c2c(c1)C1(CCC1)C(=O)N2` [Compound 158, 2-Methoxy-N-(2′-oxo-7′-(pyridin-2-ylmethoxy)spiro[cyclobutane-1,3′-indolin]-5′-yl)benzenesulfonamide]: under 600 nM.
Still for that read-out and setting: for `O=C1Nc2c(NC3CCCCC3)cc(NS(=O)(=O)c3ccc(F)cc3F)cc2C12CCC2` [Compound 20, N-(7′-(cyclohexylamino)-2′-oxospiro[cyclobutane-1,3′-indolin]-5′-yl)-2,4-difluorobenzenesulfonamide] the value was over 1000 nM; for `COc1ccc(S(=O)(=O)Nc2cc(Cc3ccccc3)c3c(c2)C2(CCC2)C(=O)N3)c(F)c1` [Compound 93, N-(7′-benzyl-2′-oxospiro[cyclobutane-1,3′-indolin]-5′-yl)-2-fluoro-4-methoxybenzenesulfonamide], under 600 nM; for `CN1CCC(N(C)C(=O)c2cc(NS(=O)(=O)c3ccc(F)cc3F)cc3c2NC(=O)C32CCC2)CC1` [Compound 53, 5′-(2,4-Difluorophenylsulfonamido)-N-methyl-N-(1-methylpiperidin-4-yl)-2′-oxospiro[cyclobutane-1,3′-indoline]-7′-carboxamide], over 1000 nM.
On the same count and under the same terms, the same measure for `O=C1Nc2c(NCc3cnc[nH]3)cc(NS(=O)(=O)c3ccc(F)cc3F)cc2C12CCC2` [Compound 25, N-(7′-(((1H-imidazol-5-yl)methyl)amino)-2′-oxospiro [cyclo butane-1,3′-indolin]-5′-yl)-2,4-difluorobenzene sulfonamide]: under 600 nM; for `CC(Oc1cc(NS(=O)(=O)c2ccc(Cl)cc2F)cc2c1NC(=O)C21CCC1)c1ccccn1` (single isomer, unassigned) [Compound 156, 4-Chloro-2-fluoro-N-(2′-oxo-7′-(1-(pyridin-2-yl)ethoxy)spiro[cyclobutane-1,3′-indolin]-5′-yl)benzenesulfonamide]: under 600 nM.
Regarding `CCN1CCC(Nc2cc(NS(=O)(=O)c3ccc(F)cc3F)cc3c2NC(=O)C32CCC2)CC1` [Compound 24, N-(7′-((1-ethylpiperidin-4-yl)amino)-2′-oxospiro[cyclobutane-1,3′-indolin]-5′-yl)-2,4-difluorobenzenesulfonamide], the IC50 under setting [1] was under 600 nM.
Same read-out and setting: the same measure for `COc1ccccc1S(=O)(=O)Nc1cc(C(C)c2nccs2)c2c(c1)C1(CCC1)C(=O)N2` (centres unmarked) [Compound 177, 2-Methoxy-N-(2′-oxo-7′-(1-(thiazol-2-yl)ethyl)spiro[cyclobutane-1,3′-indolin]-5′-yl)benzenesulfonamide]: under 600 nM.
In the case of `O=C1C=C(Nc2cc(NS(=O)(=O)c3ccc(F)cc3F)cc3c2NC(=O)C32CCC2)CCN1` [Compound 76, 2,4-Difluoro-N-(2′-oxo-7′-((6-oxo-1,2,3 ,6-tetrahydropyridin-4-yl)-amino)spiro[cyclobutane-1,3′-indolin]-5′-yl)benzenesulfonamide], the IC50 under setting [1] was under 600 nM.
As for `CCN(CC)CCOc1cc(NS(=O)(=O)c2ccccc2OC)cc2c1NC(=O)C21CCC1` [Compound 165, N-(7′-(2-(diethylamino)ethoxy)-2′-oxospiro[cyclobutane-1,3′-indolin]-5′-yl)-2-methoxybenzenesulfonamide], the IC50 under setting [1] was under 600 nM.
The same measure, in the same setting: for `O=C1Nc2c(OC3CCC(F)(F)CC3)cc(NS(=O)(=O)c3ccc(Cl)cc3F)cc2C12CCC2` [Compound 175, 4-Chloro-N-(7′-((4,4-difluorocyclohexyl)oxy)-2′-oxospiro [cyclobutane-1,3′-indolin]-5′-yl)-2-fluorobenzenesulfonamide] the value was 600 to 1000 nM.
On the same count and under the same terms, the same measure for `C=C(c1nccs1)c1cc(NS(=O)(=O)c2ccccc2OC)cc2c1NC(=O)C21CCC1` [Compound 172, 2-Methoxy-N-(2′-oxo-7′-(1-(thiazol-2-yl)vinyl)spiro[cyclobutane-1,3′-indolin]-5′-yl)benzenesulfonamide]: under 600 nM; for `COc1ccccc1S(C)(=O)=Nc1cc(NC2CCN(C)CC2)c2c(c1)C1(CCC1)C(=O)N2` (centres unmarked) [Compound-183, 5′-(((2-Methoxyphenyl)(methyl)(oxo)-l6-sulfanylidene)amino)-7′-((1-methylpiperidin-4-yl)amino)spiro[cyclobutane-1,3′-indolin]-2′-one]: under 600 nM; for `CC(c1ccccc1)c1cc(NS(=O)(=O)c2ccc(F)cc2F)cc2c1NC(=O)C21CCC1` (centres unmarked) [Compound 126, 2,4-Difluoro-N-(2′-oxo-7′-(1-phenylethyl)spiro[cyclobutane-1,3′-indolin]-5′-yl)benzenesulfonamide]: 600 to 1000 nM.
Same read-out and setting: the same measure for `COc1cc(F)ccc1S(=O)(=O)Nc1cc(Cc2ccccc2)c2c(c1)C1(CCC1)C(=O)N2` [Compound 94, N-(7′-benzyl-2′-oxospiro[cyclobutane-1,3′-indolin]-5′-yl)-4-fluoro-2-methoxybenzenesulfonamide]: under 600 nM.
